Assay results reported in paper PMC8873251, “An amiloride derivative is active against the F1Fo-ATP synthase and cytochrome bd oxidase of Mycobacterium tuberculosis” (Communications Biology, 2022).

What was measured:
[1] = molecular target: T1, F1Fo-ATP synthase c-subunit (c-ring) (Mycolicibacterium phlei, UniProt A0A5N5V239); experiment: MALDI-MS competition with DCCD labelling of purified c-ring; assay type: binding
T1 construct: gene atpE

[2] = molecular target: T1, F1Fo-ATP synthase c-subunit (c-ring); experiment: MALDI-MS time course of covalent c-subunit labelling; assay type: binding
cytochrome bd oxidase = molecular target: T2, cytochrome bd oxidase (Mycobacterium tuberculosis, UniProt L7N662+O06139); experiment: malate-driven oxygen consumption in IMVs pre-inhibited with TB47, titration; empty-vector control; assay type: biochemical
T2 construct: gene cydA
T2 sequence (O06139 entry or part of it): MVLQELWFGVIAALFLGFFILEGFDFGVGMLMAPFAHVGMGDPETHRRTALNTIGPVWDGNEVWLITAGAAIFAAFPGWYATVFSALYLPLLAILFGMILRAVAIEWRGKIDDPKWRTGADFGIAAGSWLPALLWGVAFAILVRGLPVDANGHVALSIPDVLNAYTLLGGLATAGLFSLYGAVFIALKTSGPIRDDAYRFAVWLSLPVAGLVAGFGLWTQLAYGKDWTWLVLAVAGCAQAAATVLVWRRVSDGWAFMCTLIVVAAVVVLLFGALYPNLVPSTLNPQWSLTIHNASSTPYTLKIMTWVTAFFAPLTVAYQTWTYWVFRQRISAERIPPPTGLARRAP
T2 sequence (L7N662 entry or part of it): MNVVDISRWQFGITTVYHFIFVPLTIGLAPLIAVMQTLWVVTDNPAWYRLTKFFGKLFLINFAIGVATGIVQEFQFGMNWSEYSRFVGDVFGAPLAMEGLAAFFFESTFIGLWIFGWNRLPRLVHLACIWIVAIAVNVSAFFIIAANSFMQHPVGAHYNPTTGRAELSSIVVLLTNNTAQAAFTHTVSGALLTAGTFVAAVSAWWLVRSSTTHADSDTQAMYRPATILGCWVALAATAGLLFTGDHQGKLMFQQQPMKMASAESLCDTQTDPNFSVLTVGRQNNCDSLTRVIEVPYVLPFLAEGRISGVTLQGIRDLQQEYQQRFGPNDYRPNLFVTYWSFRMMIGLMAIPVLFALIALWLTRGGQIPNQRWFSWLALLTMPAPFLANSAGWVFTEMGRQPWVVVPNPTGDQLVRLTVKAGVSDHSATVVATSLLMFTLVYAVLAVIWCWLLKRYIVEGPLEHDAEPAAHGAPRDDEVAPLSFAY

T1 sequence (A0A5N5V239 1-86): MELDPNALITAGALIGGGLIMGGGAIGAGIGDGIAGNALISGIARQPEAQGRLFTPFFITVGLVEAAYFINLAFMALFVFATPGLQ

Compound: N=C(N)NC(=O)c1nc(Cl)c(N2CCCCCC2)nc1N [HMA, 5-(N,N-hexamethylene)amiloride]
- MALDI-MS competition with DCCD labelling of purified c-ring [1]: HMA was able to outcompete the canonical c-ring covalent inhibitor DCCD for inhibition of the M. phlei F1Fo-ATP synthase c-subunit

Compound: C(=NC1CCCCC1)=NC1CCCCC1 [DCCD, N,N'-dicyclohexylcarbodiimide]
- MALDI-MS time course of covalent c-subunit labelling [2]: Time course of DCCD labelling in purified M. phlei c-rings in the presence of the indicated amounts of HMA

Compound: N=C(N)NC(=O)c1nc(-c2cc3ccccc3o2)c(N)nc1N [HM2-16F]
- IC50 (cytochrome bd oxidase): 21.2 µM
